The assay concerns the target T1, human LPA1 (Homo sapiens, UniProt Q92633).
T1 construct: the full-length cDNA for human LPA1 was obtained by PCR of the reverse transcription reaction; expressed in transfected cells
The assay can be described thus: LPA1 calcium flux assay (HLPA1 Ca Flux). Type of assay: cell-based. Particulars: Human LPA1 expressing CHO cells, stimulated with 10 nM LPA. How it is done:
A 1.1 kb cDNA encoding the human LPA1 receptor was cloned from human lung. Human lung RNA (Clontech Laboratories, Inc. USA) was reverse transcribed using the RETROscript kit (Ambion, Inc.) and the full-length cDNA for human LPA1 was obtained by PCR of the reverse transcription reaction. The nucleotide sequence of the cloned human LPA1 was determined by sequencing and confirmed to be identical to the published human LPA1 sequence (An et al. Biochem. Biophys. Res. Commun. 231:619 (1997). The cDNA was cloned into the pcDNAS/FRT expression plasmid and transfected in CHO cells using lipofectamine 2000 (Invitrogen Corp., USA). Clones stably expressing human LPA1 were selected using hygromycin and identified as cells that show Ca-influx in response to LPA.
Human LPA1 or LPA3 expressing CHO cells are seeded at 20,000-45,000 cells per well in a 96-well poly-D-lysine coated plate one or two days before the assay. Prior to the assay, the cells are washed once with PBS and then cultured in serum-free media overnight. On the day of the assay, a calcium indicator dye (Calcium 4, Molecular Devices) in assay buffer (HBSS with Ca^2+ and Mg^2+ and containing 20 mM Hepes and 0.3% fatty-acid free human serum albumin) is added to each well and incubation continued for 1 hour at 37° C. 10 μl of test compounds in 2.5% DMSO are added to the cells and incubation continued at room temperature for 30 minutes. Cells are the stimulated by the addition of 10 nM LPA and intracellular Ca^2+ measured using the Flexstation 3 (Molecular Devices). IC50s are determined using Graphpad prism analysis of drug titration curves.
For orientation: Calcium flux is commonly read through the fluorescence of an indicator in the cells.

T1 sequence (Q92633 whole entry): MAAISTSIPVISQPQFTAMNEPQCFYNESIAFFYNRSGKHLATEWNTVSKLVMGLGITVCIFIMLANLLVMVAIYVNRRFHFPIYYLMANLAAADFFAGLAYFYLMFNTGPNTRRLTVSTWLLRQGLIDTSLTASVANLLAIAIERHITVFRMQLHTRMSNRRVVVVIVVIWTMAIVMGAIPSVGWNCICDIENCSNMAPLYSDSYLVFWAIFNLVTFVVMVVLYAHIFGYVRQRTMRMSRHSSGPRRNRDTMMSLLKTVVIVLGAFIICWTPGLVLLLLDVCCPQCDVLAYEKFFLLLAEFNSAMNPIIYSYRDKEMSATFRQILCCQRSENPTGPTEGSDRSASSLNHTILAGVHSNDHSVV

As to `Cc1noc(-c2cccc(-c3cncc(C(=O)O)c3)c2)c1NC(=O)OC(C)c1ccccc1Cl` (stereo not drawn) [Compound 1-37, 5-(3-{4-[1-(2-Chloro-phenyl)-ethoxycarbonylamino]-3-methyl-isoxazol-5-yl}-phenyl)-nicotinic acid], the IC50 (usually the concentration that gives 50% inhibition) lay in the range of 1 to 50 µM.

In the case of `CCOC(=O)C(C)c1ccc(-c2ccc(-c3onc(C)c3NC(=O)OC(C)c3ccccc3Cl)cc2)cc1` (stereo not drawn) [Compound 1-70, 2-(4′-{4-[1-(2-Chloro-phenyl)-ethoxycarbonylamino]-3-methyl-isoxazol-5-yl}-biphenyl-4-yl)-propionic acid ethyl ester], the IC50 was under 0.3 µM.

`Cc1noc(-c2ccc(-c3ccc(CC(=O)O)cc3)cc2)c1NC(=O)OC(C)c1c(Cl)cccc1Cl` (stereo not drawn) [Compound 1-101, (4′-{4-[1-(2,6-Dichloro-phenyl)-ethoxycarbonylamino]-3-methyl-isoxazol-5-yl}-biphenyl-4-yl)-acetic acid]: the IC50 lay within 1 to 50 µM.

Consider `Cc1noc(-c2ccc(-c3nnn(CC(=O)O)n3)cc2)c1NC(=O)O[C@H](C)c1ccccc1F` [Compound 1-135, [5-(4-{4-[(R)-1-(2-Fluoro-phenyl)-ethoxycarbonylamino]-3-methyl-isoxazol-5-yl}-phenyl)-tetrazol-2-yl]-acetic acid], for which the IC50 was in the range of 1 to 50 µM.

On to `Cc1noc(-c2ccc(-c3ccc(CC(=O)O)cc3)cn2)c1NC(=O)OC(C)c1ccccc1Cl` (stereo not drawn) [Compound 1-73], for which the IC50 was under 0.3 µM.

As for `Cc1noc(-c2ccc(Cc3cc(C(=O)O)ccc3Cl)cc2)c1NC(=O)OC(C)c1ccccc1Cl` (stereo not drawn) [Compound 1-14, 4-Chloro-3-(4-{4-[1-(2-chloro-phenyl)-ethoxycarbonylamino]-3-methyl-isoxazol-5-yl}-benzyl)-benzoic acid], the IC50 lay within 0.3 to 1 µM.

On to `Cc1noc(-c2ccc3cc(-c4ccc(CC(=O)O)cc4)ccc3c2)c1NC(=O)OC(C)c1ccccc1Cl` (stereo not drawn) [Compound 3-1], for which the IC50 was 0.3 to 1 µM.

Consider `Cc1noc(-c2cccc(-c3ccccc3CC(=O)O)c2)c1NC(=O)OC(C)c1ccccc1Cl` (stereo not drawn) [Compound 1-44, (3′-{4-[1-(2-Chloro-phenyl)-ethoxycarbonylamino]-3-methyl-isoxazol-5-yl}-biphenyl-2-yl)-acetic acid], for which the IC50 lay in the range of 1 to 50 µM.

In the case of `Cc1noc(-c2ccc(-c3cccc(C(=O)O)c3)cc2)c1NC(=O)O[C@H](C)c1ccccn1` [Compound 1-11], the concentration for half-maximal inhibition (IC50) lay within 1 to 50 µM.

For the compound `Cc1noc(-c2cccc(-c3cccc(C(=O)O)n3)c2)c1NC(=O)OC(C)c1ccccc1Cl` (stereo not drawn) [Compound 1-36, 6-(3-{4-[1-(2-Chloro-phenyl)-ethoxycarbonylamino]-3-methyl-isoxazol-5-yl}-phenyl)-pyridine-2-carboxylic acid], the IC50 was 0.3 to 1 µM.

In the case of `Cc1noc(-c2ccc(CSc3cccc(CC(=O)O)c3)cc2)c1NC(=O)OC(C)c1ccccc1Cl` (stereo not drawn) [Compound 1-18, [3-(4-{4-[1-(2-Chloro-phenyl)-ethoxycarbonylamino]-3-methyl-isoxazol-5-yl}-benzylsulfanyl)-phenyl]-acetic acid], the IC50 is under 0.3 µM.

`CC(=O)NC(=N)Cc1ccc(-c2ccc(-c3onc(C)c3NC(=O)O[C@H](C)c3ccccc3F)cc2)cc1` [Compound 2-7, {5-[4′-(2-Acetylamino-2-imino-ethyl)-biphenyl-4-yl]-3-methyl-isoxazol-4-yl}-carbamic acid (R)-1-(2-fluoro-phenyl)-ethyl ester]: the IC50 was under 0.3 µM.

In the case of `Cc1noc(-c2ccc(-c3ccc(CCCC(=O)O)cc3)cc2)c1NC(=O)OC(C)c1ccccc1Cl` (stereo not drawn) [Compound 1-75, 4-(4′-{4-[1-(2-Chloro-phenyl)-ethoxycarbonylamino]-3-methyl-isoxazol-5-yl}-biphenyl-4-yl)-butyric acid], the IC50 was under 0.3 µM.

Turning to `Cc1noc(-c2cccc(-c3ccccc3C(=O)O)c2)c1NC(=O)OC(C)c1ccccc1Cl` (stereo not drawn) [Compound 1-32, 3′-{4-[1-(2-Chloro-phenyl)-ethoxycarbonylamino]-3-methyl-isoxazol-5-yl}-biphenyl-2-carboxylic acid], the IC50 is 0.3 to 1 µM.

In the case of `Cc1noc(-c2ccc(-c3ccc(CC(=N)N)cc3)cc2)c1NC(=O)O[C@H](C)c1ccccc1F` [Compound 2-6, [5-(4′-Carbamimidoylmethyl-biphenyl-4-yl)-3-methyl-isoxazol-4-yl]-carbamic acid (R)-1-(2-fluoro-phenyl)-ethyl ester], the IC50 lay within 1 to 50 µM.

With `Cc1noc(-c2cccc(-c3cc(C(=O)O)ccn3)c2)c1NC(=O)OC(C)c1ccccc1Cl` (stereo not drawn) [Compound 1-35, 2-(3-{4-[1-(2-Chloro-phenyl)-ethoxycarbonylamino]-3-methyl-isoxazol-5-yl}-phenyl)-isonicotinic acid], the IC50 lay within 0.3 to 1 µM.

`Cc1noc(-c2cccc(-c3cncc(CC(=O)O)c3)c2)c1NC(=O)OC(C)c1ccccc1Cl` (stereo not drawn) [Compound 1-41, [5-(3-{4-[1-(2-Chloro-phenyl)-ethoxycarbonylamino]-3-methyl-isoxazol-5-yl}-phenyl)-pyridin-3-yl]acetic acid]: the IC50 was 1 to 50 µM.

Consider `Cc1noc(-c2ccc(Cc3ccc(C(=O)NC4CC4)cc3)cc2)c1NC(=O)OC(C)c1ccccc1Cl` (stereo not drawn) [Compound 2-1, {5-[4-(4-Cyclopropylcarbamoyl-benzyl)-phenyl]-3-methyl-isoxazol-4-yl}-carbamic acid 1-(2-chloro-phenyl)-ethyl ester], for which the IC50 is under 0.3 µM.

On to `Cc1noc(-c2cccc(-c3ccc(C(=O)O)nc3)c2)c1NC(=O)OC(C)c1ccccc1Cl` (stereo not drawn) [Compound 1-34, 5-(3-{4-[1-(2-Chloro-phenyl)-ethoxycarbonylamino]-3-methyl-isoxazol-5-yl}-phenyl)-pyridine-2-carboxylic acid], for which the IC50 fell in the range of 0.3 to 1 µM.

Take `Cc1noc(-c2csc(-c3ccc(CC(=O)O)cc3)n2)c1NC(=O)O[C@H](C)c1ccccc1F` [Compound 3-3, [4-(4-{4-[(R)-1-(2-Fluoro-phenyl)-ethoxycarbonylamino]-3-methyl-isoxazol-5-yl}-thiazol-2-yl)-phenyl]-acetic acid]: the IC50 fell in the range of 1 to 50 µM.

In the case of `Cc1noc(-c2cccc(-c3ccc(F)c(CC(=O)O)c3)c2)c1NC(=O)OC(C)c1ccccc1Cl` (stereo not drawn) [Compound 1-43, (3′-{4-[1-(2-Chloro-phenyl)-ethoxycarbonylamino]-3-methyl-isoxazol-5-yl}-4-fluoro-biphenyl-3-yl)-acetic acid], the IC50 is 1 to 50 µM.

With `Cc1noc(-c2cccc(-c3ccc(CC(=O)O)cc3)c2)c1NC(=O)OC(C)c1ccccc1Cl` (stereo not drawn) [Compound 1-39, (3′-{4-[1-(2-Chloro-phenyl)-ethoxycarbonylamino]-3-methyl-isoxazol-5-yl}-biphenyl-4-yl)-acetic acid], the IC50 is 1 to 50 µM.

Consider `Cc1noc(-c2ccc(-c3ccc(C(C)(C)C(=O)O)cc3)cc2)c1NC(=O)OC(C)c1ccccc1Cl` (stereo not drawn) [Compound 1-72, 2-(4′-{4-[1-(2-Chloro-phenyl)-ethoxycarbonylamino]-3-methyl-isoxazol-5-yl}-biphenyl-4-yl)-2-methyl-propionic acid], for which the IC50 is under 0.3 µM.

`Cc1noc(-c2ccc(-c3ccc(C(=O)O)cc3)cc2)c1NC(=O)OC(C)C` [Compound 1-125, 4′-(4-Isopropoxycarbonylamino-3-methyl-isoxazol-5-yl)-biphenyl-4-carboxylic acid]: the IC50 is 1 to 50 µM.

(Values after patent US20110301142A1, “ANTAGONISTS OF LYSOPHOSPHATIDIC ACID RECEPTORS” (priority 2008, published 2011).)
